Assay results published in patent publication US6451786B1 (Cephalon, Inc., priority 1997, dated 2002).

Assays:
[1] = test system: dissociated rat embryonic spinal cord culture (ChAT activity); assay: Enhancement of spinal cord ChAT activity in dissociated rat embryonic spinal cord culture; assay type: cell-based; details: ChAT measured after 2 days in vitro
From the text: ChAT was employed a biochemical marker for functional cholinergic neurons. CHAT activity has been used to study the effects of neurotrophins (e.g., NGF or NT-3) on the survival and/or function of cholinergic neurons. The ChAT assay also has been used as an indication of the regulation of ChAT levels within cholinergic neurons. […] In these assays, a compound was directly added to a dissociated spinal cord culture. […] Neurochem.

trkA = target: T1, trkA (Homo sapiens, UniProt P04629); assay type: cell-based; details: NIH3T3 cells; for inhibition at 0.001 µM: 1 nM compound, read-out: Inhibition Score 1 nM; for inhibition at 0.001 µM / inhibition at 0.01 µM / inhibition at 0.05 µM / inhibition at 0.1 µM: NGF 10 ng/ml, percent decrease in trk protein band; for inhibition at 0.01 µM: 10 nM compound, read-out: Inhibition Score 10 nM; for inhibition at 0.05 µM: 50 nM compound, read-out: Inhibition Score 50 nM; for inhibition at 0.1 µM: 100 nM compound, read-out: Inhibition Score 100 nM
T1 construct: expressed in transfected cells; host or cells: NIH3T3 cells
T1 sequence (P04629 33-796, species assumed): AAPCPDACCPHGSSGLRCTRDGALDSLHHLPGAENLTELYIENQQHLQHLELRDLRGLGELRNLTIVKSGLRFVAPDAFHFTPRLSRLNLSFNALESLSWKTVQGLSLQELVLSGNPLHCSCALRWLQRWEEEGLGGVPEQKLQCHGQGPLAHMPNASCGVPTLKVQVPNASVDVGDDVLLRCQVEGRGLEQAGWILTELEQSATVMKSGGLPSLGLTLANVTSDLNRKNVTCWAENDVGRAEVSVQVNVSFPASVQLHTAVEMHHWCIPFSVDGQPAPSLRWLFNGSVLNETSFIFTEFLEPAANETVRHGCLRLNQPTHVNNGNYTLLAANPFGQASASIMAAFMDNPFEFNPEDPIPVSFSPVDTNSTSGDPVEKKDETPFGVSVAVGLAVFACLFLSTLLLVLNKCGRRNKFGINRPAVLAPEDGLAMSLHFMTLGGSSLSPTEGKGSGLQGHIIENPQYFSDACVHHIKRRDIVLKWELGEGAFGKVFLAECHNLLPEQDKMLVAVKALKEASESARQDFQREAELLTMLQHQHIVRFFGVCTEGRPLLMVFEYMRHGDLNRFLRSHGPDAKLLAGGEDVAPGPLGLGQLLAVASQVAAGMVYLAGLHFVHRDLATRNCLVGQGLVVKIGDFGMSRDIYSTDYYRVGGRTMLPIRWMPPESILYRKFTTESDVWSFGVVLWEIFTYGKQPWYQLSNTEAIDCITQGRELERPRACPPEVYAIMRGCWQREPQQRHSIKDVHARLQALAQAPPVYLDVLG
Protocol: NIH3T3 cells transfected with trkA were grown in 100 mm dishes. […] NGF (Harlan/Bioproducts for Science) was then added to the cells at a concentration of 10 ng/ml for 5 minutes. Cells were lysed in buffer containing detergent and protease inhibitors. Clarified cell lysates were normalized to protein using BCA method and immunoprecipitated with anti-trk antibody.
The immune complexes were collected on Protein A Sepharose beads (Sigma), separated by SDS polyacrylamide gel electrophoresis (SDS-PAGE), and transferred to a polyvinylidene difluoride (PVDF) membrane. The membrane was immunoblotted with anti-phosphotyrosine antibody (UBI), followed by incubation with horseradish peroxidase coupled goat anti-mouse IgG (Bio-Rad).. Phosphorylated proteins were visualized using ECL (Amersham).
The area of the trk protein band was measured and compared to NGF-stimulated control.

[2] = target: T2, protein kinase C (UBI; mixed isozymes of a, b, g); assay: Inhibition of protein kinase C activity (Multiscreen TCA in-plate assay); assay type: biochemical; details: read-out: PKC IC50
T2 construct: 1.5 ng protein kinase C (UBI)
Protocol: Assays were performed in 96-well Multiscreen-DP plates (Millipore). […] The reaction was allowed to proceed for 10 min at 37° C. […] The IC50 values were calculated by fitting the data to the sigmoidal dose-response (variable slope) equation in GraphPad Prism.

[3] = target: T3, baculovirus-expressed human trkA cytoplasmic domain (Homo sapiens, UniProt P04629); assay: Inhibition of trkA kinase activity (ELISA-based assay); assay type: biochemical; details: 40 μM ATP, read-out: trk IC50
T3 construct: baculovirus-expressed human trkA cytoplasmic domain; made in house; host or cells: baculovirus expression system (insect cells)
T3 sequence (P04629 440-796 limits assumed): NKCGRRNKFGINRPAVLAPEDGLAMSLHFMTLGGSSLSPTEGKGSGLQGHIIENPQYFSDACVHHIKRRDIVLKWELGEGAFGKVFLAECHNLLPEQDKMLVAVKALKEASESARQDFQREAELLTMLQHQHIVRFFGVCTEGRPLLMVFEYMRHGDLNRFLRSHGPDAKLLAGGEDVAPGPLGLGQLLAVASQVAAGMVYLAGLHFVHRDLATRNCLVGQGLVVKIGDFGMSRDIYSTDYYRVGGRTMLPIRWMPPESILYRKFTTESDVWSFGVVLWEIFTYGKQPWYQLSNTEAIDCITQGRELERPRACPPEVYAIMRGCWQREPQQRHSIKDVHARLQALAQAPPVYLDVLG
Protocol: An antibody to phosphotyrosine (UBI) was then added, followed by a secondary enzyme-conjugated antibody, alkaline phosphatase-labelled goat anti-mouse IgG (Bio-Rad). The activity of the bound enzyme was measured using an amplified detection system (Gibco-BRL). Inhibition data were analyzed using the sigmoidal dose-response (variable slope) equation in GraphPad Prism.

[4] = test system: rat spinal cord motoneurons; assay: Survival assay using rat spinal cord motoneurons (calcein AM viability); assay type: cell-based; details: cultures enriched for motoneurons, survival assessed after 4 days (FIG. 8)
Protocol: Spinal cords were dissected from Sprague-Dawley rat fetuses (Charles River Laboratories, Wilmington, Mass.) of embryonic age (E) 14.5-15. Cells from only the ventral portion of the spinal cord were dissociated, and further enriched for motoneurons by centrifugation on a 6.5% step metrizamide gradient, and were analyzed for purity by staining with low affinity neurotrophin receptor antibody (IgG-192, Boehringer-Mannheim). Cells were seeded onto 96-well plates previously coated with poly-1-ornithine and laminin (5 ug/ml each) at a density of 6×10^4 cells/cm^2 in chemically defined serum-free N2 medium (Bottenstein and Sato, 1979). To distinguish attachment from survival effects, 3,9-bis[(ethylthio)methyl]-K-252a (Kaneko et. al., J. Med. Chem 40:1863-1869, 1997) was added to cultures after an initial attachment period of 1-3 hours.
Neuronal survival was assessed after 4 days by calcein AM (Molecular Probes, Eugene, Oreg.) in a fluorimetric viability assay (Bozyczko-Coyne et. al., J. Neurosci. Meth. 50:205-216, 1993). […] The fluorescent signal was read using a plate-reading fluorimeter (Cytofluor 2350) (excitation=485 nm; emission=538 nm). […] Linearity of the fluorescence signal was verified for the concentration and incubation time for the range of cell densities. Microscopic counts of neurons correlated directly with relative fluorescence values.

| SMILES | inhibition at 0.001 µM (trkA) [%] | inhibition at 0.01 µM (trkA) [%] | inhibition at 0.05 µM (trkA) [%] | inhibition at 0.1 µM (trkA) [%] | IC50 [2] [nM] | IC50 [3] [nM] | Spinal Cord ChAT % control, Activity at 50 nM [1] [% control] | Spinal Cord ChAT % control, Maximal Activity [1] [% control] | also measured |
| --- | --- | --- | --- | --- | --- | --- | --- | --- | --- |
| C[C@]12OC(C[C@@]1(O)CO)n1c3ccccc3c3c4c(c5c6ccccc6n2c5c31)CNC4=O [Compound VII] | 1 to 25 | 26 to 49 | 76 to 100 | 76 to 100 | 79 | – | <120 | – | – |
| COC(=O)[C@]1(O)CC2O[C@]1(C)n1c3ccccc3c3c4c(c5c6ccccc6n2c5c31)C(=O)NC4 [Compound XIV, 3′-(R)-K-252a] | – | – | – | – | – | – | 147 | 195 | – |
| C[C@]12OC(C[C@@]1(O)C(=O)O)n1c3ccccc3c3c4c(c5c6ccccc6n2c5c31)CNC4=O [Compound XVI] | – | – | – | – | – | – | – | – | survival of spinal cord motoneurons [4]: significantly enhanced survival |
| C[C@]12OC(C[C@@]1(O)C(N)=O)n1c3ccccc3c3c4c(c5c6ccccc6n2c5c31)CNC4=O [Compound XV] | – | – | – | – | – | 21 | – | 129 | – |
| C[C@@]1(O)CC2O[C@]1(C)n1c3ccccc3c3c4c(c5c6ccccc6n2c5c31)C(=O)NC4 [Compound XXIX, reference compound] | 26 to 49 | 50 to 75 | 50 to 75 | 50 to 75 | 310 | – | – | – | complete inhibition of trkA at 100 nM (trkA; 100 nM): did not show complete inhibition |
| C[C@]1(O)CC2O[C@]1(C)n1c3ccccc3c3c4c(c5c6ccccc6n2c5c31)C(=O)NC4 [Compound X] | 26 to 49 | 50 to 75 | 76 to 100 | 76 to 100 | > 1000 | 2 | <120 | 127 | concentration giving complete inhibition of trkA (trkA): < 50 nM; IC50 (trkA; NGF-stimulated, read-out: IC50 for inhibiting trk in a whole cell preparation): < 10 nM |

Further lines, with some results ahead:

| inhibition at 0.001 µM (trkA) [%] | inhibition at 0.01 µM (trkA) [%] | inhibition at 0.05 µM (trkA) [%] | inhibition at 0.1 µM (trkA) [%] | IC50 [2] [nM] | IC50 [3] [nM] | SMILES | Spinal Cord ChAT % control, Activity at 50 nM [1] [% control] | Spinal Cord ChAT % control, Maximal Activity [1] [% control] | also measured |
| --- | --- | --- | --- | --- | --- | --- | --- | --- | --- |
| – | – | – | – | 95 | 2 | C[C@]12OC(C[C@H]1CO)n1c3ccccc3c3c4c(c5c6ccccc6n2c5c31)CNC4=O [Compound VI] | <120 | 125 | – |
| – | – | – | – | > 1000 | 4 | C[C@@]12C=C[C@@H](O1)n1c3ccccc3c3c4c(c5c6ccccc6n2c5c31)CNC4=O [Compound XXIII] | – | – | – |
| – | – | – | – | – | 7 | C[C@@]1(O)C[C@H]2O[C@]1(C)n1c3ccccc3c3c4c(c5c6ccccc6n2c5c31)C(=O)NC4 [Compound XXIX, reference compound] | – | – | – |
